The values below come from PMC5802399 (Nature, 2017).

Data set [1] is classed as physicochemical. The settings on record: pH 7.4.
Data set [2] is classed as physicochemical. The note with it: pH 7.4. The source holds these as a separate data set.
In data set [3] the test system is CA09 influenza virus (H1N1). Format: cell-based, Influenza A H1N1.
In the next data set the test system is PR8 influenza virus. The format is cell-based, Influenza A H1N1.
Data set [4] concerns group-1 influenza strains (H1N1, H5N1 and H6N2). Format: cell-based, Influenza A.
For the next data set, the system named is HK/X31 (H3N2), group 2. Format: cell-based, Influenza A.
For data set [5], the system named is H1N1 CA09 virus. The arrangement: species or system BALB/c mice. The settings on record: mouse, in vivo.
Data set [6] relates to H1N1 CA09 virus. Further details: species or system BALB/c mice. The settings on record: mouse, in vivo. This is another data set of the same source.

Where two headings read alike, the source gives them in different places. Bridge positions count the residues as written; N and C are the ends. Ends that are not written are not given here. Peptide text beside a SMILES is read from it.

Turning to “HB1.6394.2: chemically synthesized HA binder containing disulfides (CQEYRFTNPFACQIALEILRDFGYACTVQTINGECRVRCC; disulfide (positions not given here))”, the degradation by trypsin result with trypsin is recorded as “no degradation”.
Consider “HB1.5702.3: chemically synthesized HA binder (TSGVRATSKFAALIAAEIAREFGYTVDVQEKNGEWRVVFD)”, for which the “trypsin concentration above which gel bands weaken (proteolytic degradation)” value in the data set on trypsin is more than 2.86 µM.
In the case of “TSRVRATSKFAALIAAEIAREFGYTVDVQEVNGQWEVTFD [HB1.5702.2]”, the Tm in data set [1] was 72 °C.
For the compound “HB1.6928.2: chemically synthesized HA binder containing disulfides (CIEQSFTTLFACQTAAEIWRAFGYTVKIMVDNGNCRLHVC; disulfide (positions not given here))”, the degradation by trypsin result in the data set on trypsin is reported as “no degradation”.
On to “TSGVRATSKFAALIAAEIAREFGYTVDVQEKNGEWRVVFD [HB1.5702.3.3]”, for which the Tm in [1] was determined as 70 °C.
Consider `CC[C@H](C)[C@@H]1NC(=O)[C@H](CCC(=O)O)NC(=O)[C@H](C)NC(=O)[C@H](C)NC(=O)[C@H]([C@@H](C)O)NC(=O)[C@H](CCC(N)=O)NC(=O)[C@@H]2CSSC[C@H](NC(=O)[C@H](CC(N)=O)NC(=O)CNC(=O)[C@H](CC(N)=O)NC(=O)[C@H](CC(=O)O)NC(=O)[C@H](C(C)C)NC(=O)[C@H](CCSC)NC(=O)[C@H]([C@@H](C)CC)NC(=O)[C@H](CCCCN)NC(=O)[C@H](C(C)C)NC(=O)[C@H]([C@@H](C)O)NC(=O)[C@H](Cc3ccc(O)cc3)NC(=O)CNC(=O)[C@H](Cc3ccccc3)NC(=O)[C@H](C)NC(=O)[C@H](CCCNC(=N)N)NC(=O)[C@H](Cc3c[nH]c4ccccc34)NC1=O)C(=O)N[C@@H](CCCNC(=N)N)C(=O)N[C@@H](CC(C)C)C(=O)N[C@@H](Cc1c[nH]cn1)C(=O)N[C@@H](C(C)C)C(=O)N[C@H](C(=O)O)CSSC[C@H](N)C(=O)N[C@@H]([C@@H](C)CC)C(=O)N[C@@H](CCC(=O)O)C(=O)N[C@@H](CCC(N)=O)C(=O)N[C@@H](CO)C(=O)N[C@@H](Cc1ccccc1)C(=O)N[C@@H]([C@@H](C)O)C(=O)N[C@@H]([C@@H](C)O)C(=O)N[C@@H](CC(C)C)C(=O)N[C@@H](Cc1ccccc1)C(=O)N[C@@H](C)C(=O)N2` [HB1.6928.2.3] (H-CIEQSFTTLFACQTAAEIWRAFGYTVKIMVDNGNCRLHVC-OH; disulfide 1-40, 12-35; N-terminus and C-terminus assumed), for which, in [1], the Tm is more than 95 °C. In addition, the “reduction of binding activity after incubation at 80 °C” value in data set [2] was “no detectable loss of binding”. Further, in [3], the “EC50 for Cal09 (CA09), fold lower than FI6v3 or HB36.6” value is recorded as “more than 100 fold” and the “neutralization of CA09 virus” value is listed as “strongly neutralized”. Besides, in the data set on PR8 influenza virus, the “neutralization of PR8 virus” value was “strongly neutralized”. Moreover, the “efficiency (EC50) in inhibiting infection, compared with HB36.6 and FI6v3” value in [4] was “most efficiently inhibited infection”. In addition, the “neutralization of H3N2” value with HK/X31 (H3N2), group 2 was “no neutralization”. Also, in the data set on H1N1 CA09 virus [5], the “protection after intravenous administration” value is listed as “little protection”, the “protection after repeated administration compared with no prior dosing” value is “remains equally protective” and the survival was found to be 100%. Further, in the data set on H1N1 CA09 virus [6], the survival is 100% and the weight loss result was “less than 10%”.
For “TMTSITTSPFAAEIAARIWAEFGYTVRIETRGKTVHVTVD [HB1.6811.3]”, the Tm in data set [1] is 70 °C.
